Test results published in US20200305435A1, “SYNERGISTIC COMBINATION OF BIOCIDES” (LONZA LLC, priority 2016, published 2020).

Legend:
Assay in all cases: Minimum inhibitory concentration, microtitre plate doubling dilutions
Type in all cases: cell-based
[1] = system: Aspergillus brasiliensis; details: biocide alone, visual growth after 48 hours at 25° C., read-out: MIC versus organism A.b
Procedure: (§1) Fungi were grown on malt agar for 7 days at 25° C. to form a mycelial mat and the spore suspension harvested using 10 ml physiological saline (0.85% (w/v) NaCl). This was used as an inoculum as above. The presence or absence of growth was determined by visual inspection after 48 hours incubation at 25° C.

[2] = system: C. albicans; details: Candida albicans; biocide alone; read-out: MIC versus organism C.a
Procedure: as §1

[3] = system: Ps.a; details: Pseudomonas aeruginosa; biocide alone; read-out: MIC versus organism Ps.a
Procedure: (§2) Bacteria were grown to stationary phase (18 h) in nutrient broth (approximately 10^9 organisms per ml). A 0.1% (v/v) inoculum was used to seed fresh medium and 100 μl of this was added to each well of a microtitre plate, except for the first well which contained 200 μl. Using doubling dilutions, the concentration of each antimicrobial was varied in each well along the ordinate axis. The presence or absence of growth was determined by visual inspection after 24 hours incubation at 37° C.

[4] = system: Staphylococcus aureus; details: biocide alone, visual growth after 24 hours at 37° C., read-out: MIC versus organism S.a
Procedure: as §2

[5] = system: Escherichia coli; details: biocide alone, visual growth after 24 hours at 37° C., read-out: MIC versus organism E.c
Procedure: as §2

N=C(NCCCCCCNC(=N)NC(=N)Nc1ccc(Cl)cc1)NC(=N)Nc1ccc(Cl)cc1 [Spectradyne, Chlorhexidine gluconate]
MIC [1]: 62.5 µg/mL | MIC [2]: 16 µg/mL | MIC [3]: 4 µg/mL | MIC [4]: 1 µg/mL | MIC [5]: 2 µg/mL
